From PubChem BioAssay (NCI) come the findings set out here.

Structures are written as SMILES.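 These data come from cells grown in 96-well plates and exposed to compound for 48 hours at five concentrations. Here, GI50 denotes the concentration required for 50% inhibition of growth. At the TGI there is no net growth.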

Some test systems named below: HCC-2998 colon; KM12 colon; MDA-MB-231 breast; OVCAR-8 ovarian; SF-295 CNS; SF-539 CNS; SK-MEL-5 melanoma; CCRF-CEM leukemia; LOX IMVI melanoma; SNB-19 CNS.
Common to all, as to test: NCI-60 cell line screen, 48 h

In the case of `COc1ccc(-c2ccc(-c3ccc(C(=N)N)nc3)s2)cc1`, the GI50 is 1.82 µM with HCC-2998 colon; 1.81 µM in the assay with KM12 colon; 1.75 µM with MDA-MB-231 breast; 2.12 µM in the assay with OVCAR-8 ovarian; 1.71 µM with SF-295 CNS; 1.73 µM in the assay on SF-539 CNS. In addition, the GI50 with SK-MEL-5 melanoma was 1.79 µM. The TGI was found to be 3.41 µM with HCC-2998 colon; 3.3 µM in the assay on KM12 colon; 3.28 µM with MDA-MB-231 breast; 4.87 µM in the assay on OVCAR-8 ovarian; 3.1 µM in the assay with SF-295 CNS; 3.17 µM in the assay with SF-539 CNS. The same molecule displayed a TGI in the assay on SK-MEL-5 melanoma of 3.26 µM.

Consider `COc1ccc2c(c1)CC[C@@H]1[C@@H]2CC[C@]2(C)C(=O)C3(CCCCC3)C[C@@H]12`, for which the GI50 in the assay with CCRF-CEM leukemia, in the assay with HCC-2998 colon, with KM12 colon, with LOX IMVI melanoma, with MDA-MB-231 breast and in the assay on OVCAR-8 ovarian was above 100 µM throughout. For the same molecule, the GI50 in the assay on SF-295 CNS, in the assay on SF-539 CNS, with SK-MEL-5 melanoma and in the assay with SNB-19 CNS was above 100 µM each time. In addition, the TGI in the assay on CCRF-CEM leukemia, in the assay with HCC-2998 colon, in the assay with KM12 colon, in the assay with LOX IMVI melanoma, in the assay with MDA-MB-231 breast and in the assay with OVCAR-8 ovarian was above 100 µM throughout. Moreover, the TGI with SF-295 CNS, in the assay on SF-539 CNS, in the assay on SK-MEL-5 melanoma and in the assay with SNB-19 CNS was above 100 µM each time.

`N#CC(C#N)=CN1CCN(C(=O)c2ccco2)C1=S`: the GI50 in the assay on CCRF-CEM leukemia was 79.7 µM; in the assay on KM12 colon, 4.12 µM; with LOX IMVI melanoma it was 3.34 µM; in the assay with MDA-MB-231 breast it was 2.92 µM; in the assay on OVCAR-8 ovarian it was 14.6 µM; in the assay with SF-295 CNS it was 31.3 µM. For the same molecule, the GI50 in the assay on SF-539 CNS is 2.48 µM; with SK-MEL-5 melanoma it was 2.87 µM; in the assay with SNB-19 CNS, 38.7 µM. The TGI with CCRF-CEM leukemia is above 100 µM; in the assay with KM12 colon it was 32.2 µM; with LOX IMVI melanoma, above 100 µM; in the assay with MDA-MB-231 breast it was 17.3 µM; with OVCAR-8 ovarian it was above 100 µM; in the assay with SF-295 CNS, above 100 µM. Further, the TGI in the assay with SF-539 CNS is 7.55 µM; with SK-MEL-5 melanoma, 8.07 µM; in the assay on SNB-19 CNS, 82 µM.

Consider `O=C(O)C(=C\c1ccc2c(c1)OCO2)/C(=C/c1ccc2c(c1)OCO2)C(=O)O`, for which the TGI in the assay with CCRF-CEM leukemia, with HCC-2998 colon, with KM12 colon, in the assay with LOX IMVI melanoma, in the assay on OVCAR-8 ovarian and with SF-295 CNS was above 100 µM each time. Also, the TGI in the assay with SK-MEL-5 melanoma and in the assay on SNB-19 CNS was above 100 µM each time.

Take `Cc1c(C#N)c2nnn(C)c(=O)n2c1-c1ccccc1`: the TGI in the assay on CCRF-CEM leukemia, in the assay on HCC-2998 colon, with KM12 colon, in the assay with MDA-MB-231 breast, with OVCAR-8 ovarian and in the assay on SF-295 CNS was above 100 µM throughout. Further, the TGI in the assay on SF-539 CNS and with SNB-19 CNS was above 100 µM each time.
